Consider six molecules from patent US20260201008A1, “SECRETIN-DERIVED GLP1R SELECTIVE AGONISTS” (GUBRA A/S, priority 2023, published 2026).

Read-outs that look alike come from different tables or passages of the source. Numbered stars: 1 amine (or outer) side, 2 acyl side, 3 side chain; on linkers, the order of the positions; unused ones are H or OH. Square brackets hold non-standard residues; d marks the D form. Side chains are listed from the residue outwards. Peptide text beside a SMILES is read from it. * marks the point of attachment. C20 diacid = O=C(O)CCCCCCCCCCCCCCCCCCC(=O)*; γGlu = O=C(O)[C@H](CCC(=O)[*:2])N[*:1]; AEEA = NCCOCCOCC(=O)O; Aib = CC(C)(N)C(=O)O

Series [1] can be described thus: Turbidity of crude library peptides (absorbance at 600 nm). Type of series: physicochemical. As to conditions: Physical stability of peptides. The gist of the method:
(§1)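 Crude peptides at 267 μM in 50 mM sodium acetate pH 4.0 or 50 mM sodium phosphate pH 7.0, pre-incubated 1-2 h at room temperature, then 4 μM final ThT added. Turbidity read first as A600. ThT fluorescence (ex 450/em 480 nm) read every 10 min for 72 h at 40° C, with 5 min shaking before each read; fibril formation = average emission.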

Series [2] in a line: Fibril formation of crude library peptides (Thioflavin T). The following applies: Physical stability of peptides. The arrangement: key: average ThT fluorescence emission at 480 nm (ex 450 nm), raw units. Type of series: physicochemical. The gist of the method:
as §1

Series [3] concerns the target GLP1R (Homo sapiens, UniProt P43220). Briefly: hGLP1R potency, cAMP accumulation in CHO-K1 cells stably overexpressing hGLP1R. Type of series: cell-based. The arrangement: host or cells: CHO-K1. The following applies: for EC50: cAMP accumulation, CHO-K1 cells overexpressing hGLP1R; for SCTR EC50/GLP1R EC50 ratio: selectivity for hGLP1R over hSCTR, cAMP accumulation in CHO-K1 cells. The gist of the method:
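Thawed cells go straight into buffer containing 0.5 mM IBMX and 0.05% casein, get graded compound doses for 30 min at room temperature, and are then assayed for accumulated cAMP by time-resolved FRET. Human GLP-1(7-36) serves as positive control; EC50 is derived by nonlinear regression.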
(Changes in cAMP serve as a functional read-out for many G protein-coupled receptors.)

Series [4] addresses SCTR (Homo sapiens, UniProt P47872). Briefly: hSCTR potency, cAMP accumulation in CHO-K1 cells stably overexpressing hSCTR. The following applies: cAMP accumulation, CHO-K1 cells overexpressing hSCTR. More on the design: alternatively Euroscreen ES-712-AF; FAST-0161L; host or cells: CHO-K1. The class given is cell-based. The gist of the method:
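Read-out is TR-FRET cAMP detection, recorded one hour after reagent addition, in CHO-K1 cells stably overexpressing hSCTR. Cells in DPBS containing 0.05% casein and 0.5 mM IBMX are exposed to graded peptide doses for 30 min at room temperature, with human secretin as reference agonist.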

Setting [5] is: read-out: hGLP1R pEC50 (converted).
Setting [6] is: read-out: hSCTR pEC50 (converted).

GLP1R, sequence (P43220 24-463): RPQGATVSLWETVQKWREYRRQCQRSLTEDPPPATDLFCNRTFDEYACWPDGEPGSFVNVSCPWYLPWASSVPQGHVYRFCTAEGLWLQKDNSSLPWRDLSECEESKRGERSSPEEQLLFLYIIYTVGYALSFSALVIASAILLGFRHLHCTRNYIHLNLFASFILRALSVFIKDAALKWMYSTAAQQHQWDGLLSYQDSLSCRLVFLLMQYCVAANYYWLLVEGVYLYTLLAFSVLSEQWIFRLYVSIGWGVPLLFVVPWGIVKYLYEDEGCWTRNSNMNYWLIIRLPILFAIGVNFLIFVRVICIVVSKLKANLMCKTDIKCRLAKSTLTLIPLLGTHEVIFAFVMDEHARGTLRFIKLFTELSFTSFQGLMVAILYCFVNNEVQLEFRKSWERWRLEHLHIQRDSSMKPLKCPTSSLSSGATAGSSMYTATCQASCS
SCTR, sequence (P47872 23-440): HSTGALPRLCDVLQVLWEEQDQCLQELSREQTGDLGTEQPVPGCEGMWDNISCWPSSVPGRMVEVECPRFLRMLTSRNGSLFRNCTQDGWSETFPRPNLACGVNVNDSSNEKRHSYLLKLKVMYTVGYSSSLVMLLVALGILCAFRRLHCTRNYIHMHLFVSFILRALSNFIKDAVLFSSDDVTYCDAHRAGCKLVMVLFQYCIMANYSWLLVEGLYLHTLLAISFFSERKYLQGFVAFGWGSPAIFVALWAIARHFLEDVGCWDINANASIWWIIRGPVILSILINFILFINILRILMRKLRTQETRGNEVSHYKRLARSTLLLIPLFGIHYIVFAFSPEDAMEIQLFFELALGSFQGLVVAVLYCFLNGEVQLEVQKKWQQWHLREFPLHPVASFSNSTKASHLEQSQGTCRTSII

Take `CC[C@H](C)[C@H](NC(=O)[C@H](Cc1ccccc1)NC(=O)[C@H](CCCNC(=N)N)NC(=O)[C@H](CCC(N)=O)NC(=O)[C@H](CC(C)C)NC(=O)[C@H](C)NC(=O)[C@H](C)NC(=O)CNC(=O)[C@H](CCC(=O)O)NC(=O)[C@H](CC(C)C)NC(=O)[C@H](CC(C)C)NC(=O)[C@H](Cc1c[nH]c2ccccc12)NC(=O)[C@H](CO)NC(=O)C(C)(C)NC(=O)[C@H](CC(=O)O)NC(=O)[C@H](CO)NC(=O)[C@@H](NC(=O)[C@H](Cc1ccccc1)NC(=O)[C@@H](NC(=O)CNC(=O)[C@H](CCC(=O)O)NC(=O)C(C)(C)NC(=O)[C@@H](N)Cc1c[nH]cn1)[C@@H](C)O)[C@@H](C)O)C(=O)N[C@@H](CCC(N)=O)C(=O)N[C@@H](Cc1c[nH]c2ccccc12)C(=O)N[C@@H](CC(C)C)C(=O)N[C@H](C(N)=O)C(C)C` [compound 108] (H-H[Aib]EGTFTSD[Aib]SWLLEGAALQRFIQWLV-NH2): the “Turbidity (pH 7)” value in series [1] was determined as 0.72. In series [2], this molecule showed a Fibril formation of 20603. Also, the figures for the EC50 in series [3] (setting [5]) and in series [4] (setting [6]) were 0.0794 nM and 1260 nM, respectively. In series [3], the “SCTR EC50/GLP1R EC50 ratio” value worked out at 14555.
Turning to `CC(C)C[C@H](NC(=O)[C@H](Cc1ccccc1)NC(=O)[C@H](CCCNC(=N)N)NC(=O)[C@H](CCC(N)=O)NC(=O)[C@H](CC(C)C)NC(=O)C(C)(C)NC(=O)[C@H](C)NC(=O)[C@H](CCC(=O)O)NC(=O)[C@H](CCC(=O)O)NC(=O)[C@H](CCCCNC(=O)COCCOCCNC(=O)COCCOCCNC(=O)CC[C@H](NC(=O)CCCCCCCCCCCCCCCCCCC(=O)O)C(=O)O)NC(=O)[C@H](CC(C)C)NC(=O)[C@@H](NC(=O)[C@H](CO)NC(=O)[C@@H](NC(=O)[C@H](CC(=O)O)NC(=O)[C@H](CO)NC(=O)[C@@H](NC(=O)[C@H](Cc1ccccc1)NC(=O)[C@@H](NC(=O)CNC(=O)[C@H](CCC(=O)O)NC(=O)C(C)(C)NC(=O)[C@@H](N)Cc1c[nH]cn1)[C@@H](C)O)[C@@H](C)O)C(C)C)C(C)C)C(=O)N[C@@H](CCC(=O)O)C(=O)N[C@@H](Cc1c[nH]cn1)C(=O)N[C@@H](CC(C)C)C(=O)N[C@H](C(N)=O)C(C)C` [compound 138] (H-H[Aib]EGTFTSDVSVLK([AEEA-AEEA-γGlu-C20 diacid])EEA[Aib]LQRFLEHLV-NH2), the “Turbidity (pH 7)” value in series [1] is recorded as 0.09. In series [2], this molecule came in with a Fibril formation of 3306. Moreover, the EC50 in series [3] (setting [5]) was 0.0126 nM; in series [4] (setting [6]), 31.6 nM. The “SCTR EC50/GLP1R EC50 ratio” value in series [3] was 2569.
As to `CC(C)C[C@H](NC(=O)[C@H](Cc1ccccc1)NC(=O)[C@H](CCCNC(=N)N)NC(=O)[C@H](CCC(N)=O)NC(=O)[C@H](C)NC(=O)[C@H](C)NC(=O)[C@H](C)NC(=O)[C@H](CCC(=O)O)NC(=O)[C@H](CCC(=O)O)NC(=O)[C@H](CCCCNC(=O)COCCOCCNC(=O)COCCOCCNC(=O)CC[C@H](NC(=O)CCCCCCCCCCCCCCCCCCC(=O)O)C(=O)O)NC(=O)[C@H](CC(C)C)NC(=O)[C@H](CCC(=O)O)NC(=O)[C@H](CO)NC(=O)[C@@H](NC(=O)[C@H](CC(=O)O)NC(=O)[C@H](CO)NC(=O)[C@@H](NC(=O)[C@H](Cc1ccccc1)NC(=O)[C@@H](NC(=O)CNC(=O)[C@H](CCC(=O)O)NC(=O)C(C)(C)NC(=O)[C@@H](N)Cc1c[nH]cn1)[C@@H](C)O)[C@@H](C)O)C(C)C)C(=O)N[C@@H](CCC(=O)O)C(=O)N[C@@H](Cc1c[nH]cn1)C(=O)N[C@@H](CC(C)C)C(=O)N[C@H](C(N)=O)C(C)C` [compound 98] (H-H[Aib]EGTFTSDVSELK([AEEA-AEEA-γGlu-C20 diacid])EEAAAQRFLEHLV-NH2), the “Turbidity (pH 7)” value in series [1] amounted to 0.09. In series [2], this molecule had a Fibril formation of 10655. In addition, the figures for the EC50 in series [3] (setting [5]) and in series [4] (setting [6]) were 0.0251 nM and 1260 nM, respectively. Further, the “SCTR EC50/GLP1R EC50 ratio” value in series [3] was determined as 48854.
The matching figures for `CC(C)C[C@H](NC(=O)[C@H](Cc1ccccc1)NC(=O)[C@H](CCCNC(=N)N)NC(=O)[C@H](CCC(N)=O)NC(=O)[C@H](CC(C)C)NC(=O)C(C)(C)NC(=O)[C@H](C)NC(=O)[C@H](CCC(=O)O)NC(=O)[C@H](CCC(=O)O)NC(=O)[C@H](CCCCNC(=O)COCCOCCNC(=O)COCCOCCNC(=O)CC[C@H](NC(=O)CCCCCCCCCCCCCCCCCCC(=O)O)C(=O)O)NC(=O)[C@H](CC(C)C)NC(=O)[C@@H](NC(=O)[C@H](CO)NC(=O)[C@@H](NC(=O)[C@H](CC(=O)O)NC(=O)[C@H](CO)NC(=O)[C@@H](NC(=O)[C@H](Cc1ccccc1)NC(=O)[C@@H](NC(=O)CNC(=O)[C@H](CCC(=O)O)NC(=O)C(C)(C)NC(=O)[C@@H](N)Cc1c[nH]cn1)[C@@H](C)O)[C@@H](C)O)C(C)C)[C@@H](C)O)C(=O)N[C@@H](CCC(=O)O)C(=O)N[C@@H](Cc1c[nH]cn1)C(=O)N[C@@H](CC(C)C)C(=O)N[C@H](C(N)=O)C(C)C` [compound 165] (H-H[Aib]EGTFTSDVSTLK([AEEA-AEEA-γGlu-C20 diacid])EEA[Aib]LQRFLEHLV-NH2): 0.08, 4038, 0.00631 nM, 10 nM and 1693.
In the case of `CC(C)C[C@H](NC(=O)[C@H](Cc1ccccc1)NC(=O)[C@H](CCCNC(=N)N)NC(=O)[C@H](CCC(N)=O)NC(=O)C(C)(C)NC(=O)[C@H](C)NC(=O)[C@H](C)NC(=O)C(C)(C)NC(=O)[C@H](CCC(=O)O)NC(=O)[C@H](CCCCNC(=O)COCCOCCNC(=O)COCCOCCNC(=O)CC[C@H](NC(=O)CCCCCCCCCCCCCCCCCCC(=O)O)C(=O)O)NC(=O)[C@H](CC(C)C)NC(=O)[C@H](CCCNC(=N)N)NC(=O)[C@H](CO)NC(=O)[C@@H](NC(=O)[C@H](CC(=O)O)NC(=O)[C@H](CO)NC(=O)[C@@H](NC(=O)[C@H](Cc1ccccc1)NC(=O)[C@@H](NC(=O)CNC(=O)[C@H](CCC(=O)O)NC(=O)C(C)(C)NC(=O)[C@@H](N)Cc1c[nH]cn1)[C@@H](C)O)[C@@H](C)O)C(C)C)C(=O)N[C@@H](CCC(=O)O)C(=O)N[C@@H](Cc1c[nH]cn1)C(=O)N[C@@H](CC(C)C)C(=O)N[C@H](C(N)=O)C(C)C` [compound 64] (H-H[Aib]EGTFTSDVSRLK([AEEA-AEEA-γGlu-C20 diacid])E[Aib]AA[Aib]QRFLEHLV-NH2), the “Turbidity (pH 7)” value in series [1] is listed as 0.09. In series [2], this molecule registered a Fibril formation of 14614. In series [3] (SCTR EC50/GLP1R EC50 ratio), the Selectivity turned out to be 4808. Moreover, the EC50 in series [3] (read-out: pEC50 hGLPR1 (converted)) is 0.0631 nM; in series [4] (read-out: pEC50 hSCTR (converted)), 316 nM.
On to `CC(C)C[C@H](NC(=O)[C@H](Cc1ccccc1)NC(=O)[C@H](CCCNC(=N)N)NC(=O)[C@H](CCC(N)=O)NC(=O)[C@H](CC(C)C)NC(=O)C(C)(C)NC(=O)[C@H](C)NC(=O)[C@H](CCC(=O)O)NC(=O)[C@H](CCC(=O)O)NC(=O)[C@H](CCCCNC(=O)COCCOCCNC(=O)COCCOCCNC(=O)CC[C@H](NC(=O)CCCCCCCCCCCCCCCCCCC(=O)O)C(=O)O)NC(=O)[C@H](CC(C)C)NC(=O)[C@H](Cc1ccc(O)cc1)NC(=O)[C@H](CO)NC(=O)[C@@H](NC(=O)[C@H](CC(=O)O)NC(=O)[C@H](CO)NC(=O)[C@@H](NC(=O)[C@H](Cc1ccccc1)NC(=O)[C@@H](NC(=O)CNC(=O)[C@H](CCC(=O)O)NC(=O)C(C)(C)NC(=O)[C@@H](N)Cc1c[nH]cn1)[C@@H](C)O)[C@@H](C)O)C(C)C)C(=O)N[C@@H](CCC(=O)O)C(=O)N[C@@H](CCCCN)C(=O)N[C@@H](CC(C)C)C(=O)N[C@H](C(N)=O)C(C)C` [compound 147] (H-H[Aib]EGTFTSDVSYLK([AEEA-AEEA-γGlu-C20 diacid])EEA[Aib]LQRFLEKLV-NH2), for which the “Turbidity (pH 7)” value in series [1] amounted to 0.08. The Fibril formation in series [2] is on record as 4336. Also, the EC50 was 0.00501 nM in series [3] (setting [5]) and 63.1 nM in series [4] (setting [6]). Further, the “SCTR EC50/GLP1R EC50 ratio” value in series [3] is on record as 12361.
